The supplement of paper PMC11451515

System: SEM cells
Assay: cell viability relative to DMSO control; higher = less cytotoxic
Settings: 48 h
How it was run: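 Library compounds in DMSO were pin-dosed into 1536-well plates (5 μl) holding NOMO1 or SEM (500 cells/well) or P12-Ichikawa (1000 cells/well) leukemia cells, across an 11-point threefold series of 47 μM to 0.79 nM. Each cell line had been adapted for at least four passages in each medium. CellTiter-Glo One luminescence was read after 48 h at 37°C. Viability is the per-plate percentage relative to DMSO wells, with cell-free wells as background.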

[1] = HPLM + 10% dialyzed FBS, 0.000781 µM
[2] = HPLM + 10% dialyzed FBS, 0.00234 µM
[3] = HPLM + 10% dialyzed FBS, 0.00702 µM
[4] = HPLM + 10% dialyzed FBS, 0.0211 µM
[5] = HPLM + 10% dialyzed FBS, 0.0632 µM
[6] = HPLM + 10% dialyzed FBS, 0.19 µM
[7] = HPLM + 10% dialyzed FBS, 0.569 µM
[8] = HPLM + 10% dialyzed FBS, 1.71 µM
[9] = HPLM + 10% dialyzed FBS, 5.12 µM
[10] = HPLM + 10% dialyzed FBS, 15.4 µM
[11] = HPLM + 10% dialyzed FBS, 46.1 µM
[12] = RPMI 5 mM glucose + 10% FBS, 0.000781 µM
[13] = RPMI 5 mM glucose + 10% FBS, 0.00234 µM
[14] = RPMI 5 mM glucose + 10% FBS, 0.00702 µM
[15] = RPMI 5 mM glucose + 10% FBS, 0.0211 µM
[16] = RPMI 5 mM glucose + 10% FBS, 0.0632 µM
[17] = RPMI 5 mM glucose + 10% FBS, 0.19 µM
[18] = RPMI 5 mM glucose + 10% FBS, 0.569 µM
[19] = RPMI 5 mM glucose + 10% FBS, 1.71 µM
[20] = RPMI 5 mM glucose + 10% FBS, 5.12 µM
[21] = RPMI 5 mM glucose + 10% FBS, 15.4 µM
[22] = RPMI 5 mM glucose + 10% FBS, 46.1 µM
[23] = RPMI 5 mM glucose + 10% dialyzed FBS, 0.000781 µM
[24] = RPMI 5 mM glucose + 10% dialyzed FBS, 0.00234 µM
[25] = RPMI 5 mM glucose + 10% dialyzed FBS, 0.00702 µM
[26] = RPMI 5 mM glucose + 10% dialyzed FBS, 0.0211 µM
[27] = RPMI 5 mM glucose + 10% dialyzed FBS, 0.0632 µM
[28] = RPMI 5 mM glucose + 10% dialyzed FBS, 0.19 µM
[29] = RPMI 5 mM glucose + 10% dialyzed FBS, 0.569 µM
[30] = RPMI 5 mM glucose + 10% dialyzed FBS, 1.71 µM
[31] = RPMI 5 mM glucose + 10% dialyzed FBS, 5.12 µM
[32] = RPMI 5 mM glucose + 10% dialyzed FBS, 15.4 µM
[33] = RPMI 5 mM glucose + 10% dialyzed FBS, 46.1 µM

SMILES	cell viability [1] [%]	cell viability [2] [%]	cell viability [3] [%]	cell viability [4] [%]	cell viability [5] [%]	cell viability [6] [%]	cell viability [7] [%]	cell viability [8] [%]	cell viability [9] [%]	cell viability [10] [%]	cell viability [11] [%]	cell viability [12] [%]	cell viability [13] [%]	cell viability [14] [%]	cell viability [15] [%]	cell viability [16] [%]	cell viability [17] [%]	cell viability [18] [%]	cell viability [19] [%]	cell viability [20] [%]	cell viability [21] [%]	cell viability [22] [%]	cell viability [23] [%]	cell viability [24] [%]	cell viability [25] [%]	cell viability [26] [%]	cell viability [27] [%]	cell viability [28] [%]	cell viability [29] [%]	cell viability [30] [%]	cell viability [31] [%]	cell viability [32] [%]	cell viability [33] [%]
O=C(C1CCCCC1)N1CC(=O)N2CCc3ccccc3C2C1 (stereo unspecified)	90.6	98.8	117	108	113	96	97.1	86.1	78.2	84.1	75.8	99.9	109	126	105	116	95.8	91.6	74.3	66.7	75.1	78.4	106	110	147	99.1	133	132	103	77.9	75	74.8	73.1
Cl.Cl.Fc1ccc(C(OCCN2CCN(CCCc3ccccc3)CC2)c2ccc(F)cc2)cc1	97.4	96	99.3	104	104	93.2	97.1	113	111	99.7	32.4	111	112	111	120	109	114	103	107	102	115	22.3	84.9	99.5	105	118	120	124	130	122	120	110	27.9
Clc1ccc(COC(Cn2ccnc2)c2ccc(Cl)cc2Cl)cc1 (stereo unspecified)	72.9	82.3	89.9	97.2	83.6	84.7	80.8	88.9	92.5	87.9	80.5	116	110	121	114	119	102	119	107	113	107	82	76.8	78.8	113	85	92.2	88.7	111	94.2	101	79.7	74.5
CCC(=O)O[C@@]1([C@H](C)C[C@H]2[C@@H]3C[C@H](F)\C4=C\C(=O)\C=C/[C@]4(C)[C@@]3(F)[C@@H](O)C[C@]12C)C(=O)SCF	96.6	102	94.7	68	60.6	13.1	66.1	79.4	64.9	61.9	58	94.2	103	88.6	67.8	53.2	13.1	68.6	73	68.6	59.5	59.6	98.1	124	83.6	73.5	40.5	11.7	58.8	63.4	60.6	53.3	53.4
CN(C)CCC=C1C2=C(C=CC=C2)\C=C/C3=C1C=CC=C3	108	115	120	100	116	124	116	101	108	99.1	72.2	108	116	106	109	109	112	93.1	68.7	102	101	84.9	112	108	129	130	119	128	112	106	116	108	81.7
O=C(NC1CC1)c1cccc(-c2ccc3c(NC(=O)C4CC4)n[nH]c3c2)c1	98.9	98.1	107	96.2	97.6	95.1	97.2	98.5	90	62.8	18.8	97.1	106	109	107	103	98.4	103	113	89.4	51.3	11.1	103	108	104	104	116	115	102	104	86.1	56.9	18.2
C[C@@H]1CN(CC(=O)N2CC(C)(C)c3ncc(Cc4ccc(F)cc4)cc32)[C@@H](CN2CCOC[C@H]2C)CN1	83.8	105	48	115	105	95.2	113	85	105	104	73	76.3	96.3	30.4	104	92.5	88.9	97.8	89.2	110	80.4	54.9	86.9	116	40.8	117	103	114	111	104	111	94.5	75.6
